Test results taken from patent US8106203B2, “Assay methods using chemiluminescent detection of peroxidase” (Lumigen, Inc., priority 2001, dated 2012).
Values belong to the compound of their own block, whether it stands above or below them.

Experiments:
HRP [1] = molecular target: T1, HRP (Armoracia rusticana, UniProt P00433); assay: Comparison of signal intensity (Example 17): maximum signal with HRP; format: biochemical, horseradish; details: 3.5×10^−16 moles of HRP
T1 sequence (P00433 31-338): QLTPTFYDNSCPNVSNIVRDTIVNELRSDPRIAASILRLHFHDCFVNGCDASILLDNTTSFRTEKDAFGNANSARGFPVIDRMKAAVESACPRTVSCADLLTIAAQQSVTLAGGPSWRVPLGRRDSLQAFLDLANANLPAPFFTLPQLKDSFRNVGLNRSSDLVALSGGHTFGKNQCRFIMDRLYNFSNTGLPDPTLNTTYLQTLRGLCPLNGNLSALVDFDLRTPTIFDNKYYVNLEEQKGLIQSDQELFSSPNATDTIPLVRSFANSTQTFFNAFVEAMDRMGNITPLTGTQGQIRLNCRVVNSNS
Procedure: (§1) The maximum signal produced by each of compounds 40-51 was compared by reacting a 100 μL aliquot of reagent compositions comprising 0.025 M tris buffer, pH 8, 2.5 mM urea peroxide, 4 mM p-hydroxycinnamic acid, 0.5 mM EDTA, 0.1% Tween 20, and either 1 mM, 0.3 mM, 0.15 mM or 0.05 mM of the test compound with 3.5×10^−16 moles of HRP. Each reagent reached maximum light intensity in 1-3 minutes.

[2] = Solubility in the aqueous formulation; format: physicochemical; details: 0.025 M tris pH 8 formulation with 0.1% Tween 20
HRP [3] = molecular target: T1, HRP; assay: Comparison of signal intensity (Example 10): maximum signal with HRP; format: biochemical, horseradish; details: 3×10^−4 M compound, 0.025 M tris pH 8, 2.5 mM urea peroxide, 4 mM p-hydroxycinnamic acid; 3.5×10^−16 moles of HRP
Procedure: as §1, with “14, and 27-29” for “40-51”, “3×10^−4 M” for “either 1 mM, 0.3 mM, 0.15 mM or 0.05 mM”, “about 1 minute.” for “1-3 minutes.”

HRP [4] = molecular target: T1, HRP; assay: Comparison of signal intensity (Example 9): chemiluminescence on reaction of reagent with HRP; format: biochemical, horseradish; details: 3.5×10^−16 moles of HRP
Procedure: Reagent compositions comprising 0.01 M tris buffer, pH 8, 0.5 mM urea peroxide, 0.1 mM p-phenylphenol, […], 0.025% Tween 20, and 5×10^−5 M of each compound in the table below except the compound designated Ref. 1 were tested for production of chemiluminescence by reacting a 100 μL aliquot with 3.5×10^−16 moles of HRP. The reagent formulation for Ref. 1 comprised 0.05 M tris buffer, pH 8.6, 0.25 mM urea peroxide, 0.05 mM p-phenylphenol, 0.5 mM EDTA, 0.0125% Tween 20, and 3.3×10^−4 M Ref. 1. For comparison, data are provided for reference compounds 1 and 2.

HRP-labeled antibody = molecular target: T2, HRP-labeled antibody (Armoracia rusticana, UniProt P00433); assay: Western blot of β-galactosidase via HRP-labeled antibody on PVDF membrane; format: biochemical
T2 sequence (P00433 31-338): T1 sequence (P00433 31-338)
Procedure: A western blot assay of β-galactosidase as the test antigen was conducted according to the procedure described in U. K. Laemmli, Nature (London), 227, 680 (1970) using a PVDF membrane. β-Galactosidase standards in the range of 5000-5 pg. The detection reagent containing Compound 1 permitted detection to be performed in under 1 minute.

peroxidase = assay: Chemiluminescence on reaction with peroxide and a peroxidase (general); format: biochemical; details: mixtures of double bond isomers
Description: Reaction of ketene dithioacetal compounds of formula I, including those shown above, with peroxide and a peroxidase generate chemiluminescence which rapidly reaches very high intensity. Maximum light emission is achieved in one minute or less and remains constant for several minutes. […] No other known chemiluminescent peroxidase substrate generates high intensity chemiluminescence so rapidly. This kinetic behavior in unexpected and contrasts with the chemiluminescence time profile of structurally related compounds disclosed in the aforementioned U.S. Pat. No. 5,922,558. For example, a compound having the formula:
[drawing 18] reacted with HRP was disclosed to reach maximum chemiluminescence intensity in 7 min. The ability of the compounds of the present invention to reach a stable maximum light intensity so rapidly makes them more suitable than other chemiluminescent compounds for peroxidase detection in the rapid high throughput assays in demand today.
Compounds and compositions of the present invention are useful in a method to produce chemiluminescence by reaction with a peroxidase. Reaction of a compound of the invention with a peroxidase and a peroxide in an aqueous buffer solution produces easily detectable visible chemiluminescence. Light intensity reaches a maximum level rapidly at room temperature, typically in about 1 minute. […]

HRP [5] = molecular target: T1, HRP; assay: Chemiluminescent detection of HRP with compounds 52 and 53; format: biochemical, horseradish; details: 3×10^−4 M compound, HRP 1.4×10^−16 to 1.4×10^−21 moles
Procedure: Reagent compositions comprising 0.025 M tris buffer, pH 8.0, 2.5 mM urea peroxide, 4 mM p-hydroxycinnamic acid, 0.5 mM EDTA, 0.1% Tween 20 and 3×10^−4 M compound 52 or 53 were tested for production of chemiluminescence by reacting triplicate 100 μL aliquots with 10 μL of HRP in the range 1.4×10^−16 to 1.4×10^−21 moles. […] The relation between peak chemiluminescence intensity and amount of enzyme is depicted in FIG. 8.

HRP [6] = molecular target: T1, HRP; assay: Stability of working solutions by solution assay; format: physicochemical, horseradish
Procedure: Reagent stability of the working solutions of compound 53 and compound 46 was assessed by preparing the working solution by combining 50 μL aliquots of the two component solutions and storing the mixed solutions at 4° C. or room temperature. The working solution contained 0.025 M tris buffer, pH 8, 2.5 mM urea peroxide, 4 mm p-hydroxycinnamic acid, 0.5 mM EDTA, 0.1% Tween 20, and 0.05 mM of the substrate. Chemiluminescent assays were run with 3.5×10^−16 moles of HRP at 25° C. Maximum intensity results were compared to the values obtained with fresh reagent prepared from the individual components stored at 4° C. […] The composition containing compound 53 was unchanged after four months at 4° C., that containing compound 46 was unchanged after 9 months at 4° C.

HRP [7] = molecular target: T1, HRP; assay: Chemiluminescent detection of HRP with compound 1; format: biochemical, horseradish
Procedure: Reagent compositions comprising 0.01 M tris buffer, pH 7.0, 0.5 mm urea peroxide, 0.1 mM p-phenylphenol, 1 mM EDTA, 0.025% Tween 20 and 5×10^−5 M compound 1 were tested for production of chemiluminescence by reacting triplicate 100 μL aliquots with 10 μL of HRP in the range 1.4×10^−15 to 1.4×10^−20 moles. Light production ensued upon mixing and reached maximum intensity in about 1 min.

[8] = 5×10^−5 M compound, 0.01 M tris pH 8, 0.5 mM urea peroxide, 0.1 mM p-phenylphenol, 0.025% Tween 20
[9] = 1 mM test compound (Formulation 1.0)

Signal/Background (HRP [1]; 0.05 mM test compound): 4853
solubility in the aqueous formulation [2]: very poorly soluble
Structure (SMILES): c1ccc(CN2c3ccccc3C(=C3SCCOCCOCCOCCOCCS3)c3ccccc32)cc1 [Compound 49]

Signal/Background (HRP [3]): 6621
Structure (SMILES): COc1ccc(CN2c3ccccc3C(=C(SC)SCCCS(=O)(=O)[O-])c3ccccc32)cc1.[Na+] [Compound 29]

Signal/Background (HRP [4]; [8]): 953
Structure (SMILES): CSC(SC)=C1c2ccccc2N(C)c2ccccc21 [Compound 2]

Signal/Background (HRP [1]; [9]): 4219
Structure (SMILES): O=P([O-])([O-])OCCCOC1CSC(=C2c3ccccc3N(Cc3ccccc3)c3ccccc32)SC1.[Na+].[Na+] (centres unmarked) [Compound 48]

Signal/Background (HRP [1]; [9]): 4011
Structure (SMILES): CSC(SC)=C1c2ccccc2N(Cc2ccc(O)cc2)c2ccccc21 [Compound 40]

Signal/Background (HRP [1]; [9]): 9100
Structure (SMILES): O=S(=O)([O-])CCCSC(SCc1ccccc1)=C1c2ccccc2N(c2ccccc2)c2ccccc21.[Na+] [Compound 42]

Structure (SMILES): CN1c2ccccc2C(=C(OP(=O)([O-])[O-])Sc2ccccc2)c2ccccc21.[Na+].[Na+] [Ref. 1, reference compound]
Signal/Background (HRP [4]; Ref. 1 formulation: 3.3×10^−4 M, 0.05 M tris pH 8.6, 0.25 mM urea peroxide, 0.05 mM p-phenylphenol): 53
chemiluminescence intensity and exposure needed, compared with the compound 1 reagent (HRP-labeled antibody; β-galactosidase): lower intensity chemiluminescence and required longer exposures
lower abundance bands able to be imaged (HRP-labeled antibody; β-galactosidase): not possible to image

Signal/Background (HRP [3]): 6717
Structure (SMILES): CSC(SCCCS(=O)(=O)[O-])=C1c2ccccc2N(Cc2ccc(Cl)cc2)c2ccccc21.[Na+] [Compound 28]

Signal/Background (HRP [1]; 0.3 mM test compound): 1651
Structure (SMILES): O=S(=O)([O-])CCCOCCCN1c2ccccc2C(=C2Sc3ccccc3S2)c2ccccc21.[Na+] [Compound 50]

Signal/Background (HRP [1]; 0.3 mM test compound): 2102
Structure (SMILES): OC1CSC(=C2c3ccccc3N(c3ccccc3)c3ccccc32)SC1 (centres unmarked) [Compound 45]

Signal/Background (HRP [1]; [9]): 14000
Structure (SMILES): O=S(=O)([O-])CCCSC(SCc1ccc(Cl)cc1)=C1c2ccccc2N(Cc2ccccc2)c2ccccc21.[Na+] [Compound 41]

Structure (SMILES): CCCCCCCCSC(SCCCS(=O)(=O)[O-])=C1c2ccccc2N(c2ccccc2)c2ccccc21.[Li+] [Compound 13]
Signal/Background (HRP [4]; [8]): 7626

Structure (SMILES): CCCCCCCCSC(SC)=C1c2ccccc2N(c2ccccc2)c2ccccc21 [Compound 6]
generation of chemiluminescence (peroxidase): Compounds 3, 4 and 6 were obtained as mixtures of double bond isomers. Each of these compounds generates chemiluminescence in the present invention.

Signal/Background (HRP [1]; 0.3 mM test compound): 5408
Structure (SMILES): CSC(SCCCOS(=O)(=O)[O-])=C1c2ccccc2N(Cc2ccccc2)c2ccccc21.[Na+] [Compound 55]

Signal/Background (HRP [4]; [8]): 325
Structure (SMILES): COC(Sc1ccccc1)=C1c2ccccc2N(C)c2ccccc21 [Ref. 2, reference compound]

Signal/Background (HRP [1]; 0.15 mM test compound): 5742
rise of light to maximum intensity (HRP [5]): reached maximum intensity rapidly
working solution composition after storage (HRP [6]; four months at 4° C.): unchanged
reagent performance on storage of working solution (HRP [6]; up to three weeks at room temperature, 0.05 mM substrate): no deterioration of reagent performance
Structure (SMILES): CSC(SCCCOCCCS(=O)(=O)[O-])=C1c2ccccc2N(Cc2ccccc2)c2ccccc21.[Na+] [Compound 53]

Structure (SMILES): c1ccc(CSC(SCc2ccccc2)=C2c3ccccc3N(c3ccccc3)c3ccccc32)cc1 [Compound 3]
generation of chemiluminescence (peroxidase): Compounds 3, 4 and 6 were obtained as mixtures of double bond isomers. Each of these compounds generates chemiluminescence in the present invention.

Signal/Background (HRP [1]; 0.15 mM test compound): 2502
Structure (SMILES): CSC(SCCCSCCCS(=O)(=O)[O-])=C1c2ccccc2N(c2ccccc2)c2ccccc21.[Na+] [Compound 54]

Signal/Background (HRP [1]; 0.15 mM test compound): 5840
rise of light to maximum intensity (HRP [5]): reached maximum intensity rapidly
Structure (SMILES): O=S(=O)([O-])CCCOCCCSC(SCCCO)=C1c2ccccc2N(Cc2ccccc2)c2ccccc21.[Na+] [Compound 52]

Signal/Background (HRP [4]; [8]): 8060
time to reach maximum intensity (HRP [7]; 5×10^−5 M compound 1, pH 7.0, p-phenylphenol): about 1 min
log-log plot of chemiluminescence intensity vs. amount of enzyme (HRP [7]; HRP 1.4×10^−15 to 1.4×10^−20 moles): linear over the entire range tested
lower abundance bands able to be imaged (HRP-labeled antibody; β-galactosidase): ≤ 1 pg
time in which detection could be performed (HRP-labeled antibody; β-galactosidase standards 5000-5 pg): under 1 minute
Structure (SMILES): CSC(SC)=C1c2ccccc2N(c2ccccc2)c2ccccc21 [Compound 1]

Signal/Background (HRP [1]; [9]): 7228
Structure (SMILES): O=S(=O)([O-])CCCOC1CSC(=C2c3ccccc3N(Cc3ccccc3)c3ccccc32)SC1.[Na+] (centres unmarked) [Compound 47]

Signal/Background (HRP [1]; 0.05 mM test compound): 4264
solubility in the aqueous formulation [2]: very poorly soluble
Structure (SMILES): CN1c2ccccc2C(=C2Sc3ccccc3S2)c2ccccc21 [Compound 51]

Signal/Background (HRP [3]): 26000
Structure (SMILES): O=S(=O)([O-])CCCSC(SCc1ccccc1)=C1c2ccccc2N(Cc2ccccc2)c2ccccc21.[Na+] [Compound 38]
